Assays:
OCI-LY10 cells = assay: CTG Cell Viability Assay with OCI-LY10; type: cell-based; conditions: Homo sapiens, 96 h, 4 days, CellTiter-Glo, read-out: CTG Cell Viability in OCI-LY10: Average external DC50
Procedure: Compound-mediated viability effect on OCI-LY10 or TMD8 was quantitatively determined using the CellTiter-Glo® Luminescent Cell Viability Assay kit from Promega (Catalog number G7570) following manufacturer's recommended procedures. Briefly, OCI-LY10 cells were seeded into 384 well plates (Grenier Bio-One, Catalog number 781080) with a density of 10,000 cells per well. Compounds were then added to the assay plate with final top concentration of 10 μM and 1:3 dilution series with total of 9 doses. The final DMSO concentration was normalized to 0.2%. The assay plates were incubated at 37° C. for 4 days under 5% CO2. Then the assay plate was equilibrated at room temperature for 10 minutes. To determine cell viability, 30 μL Cell Titer Glo reagent was added to each well and the assay plate was centrifuged at 1000 rpm for 30 second, incubated at room temperature for 10 min, and analyzed by detecting the luminescence using a multimode plate reader (EnVision 2105, PerkinElmer). The data was then analyzed by software Prism 7.0 from GraphPad and the dose response curves were fit using a three-parameter logistic equation to calculate IC50.
The letter codes for IRAK4 IC50 include: A (<0.05 μM), B (0.05-0.1 μM), C (0.1-0.5 μM), D (0.5-1.0 μM), and E (>1.0 μM).

IRAK4 = molecular target: T1, IRAK4 (Homo sapiens, UniProt Q9NWZ3); assay: IRAK4 MSD degradation in OCI-LY10; type: cell-based; conditions: OCI-LY10 cells, 24 hrs, Meso Scale Discovery; read-out: IRAK4 MSD degradation in OCI-LY10 at 24 hrs: Average external-Abs DC50
T1 construct: endogenous in cells; host or cells: OCI-LY10
T1 sequence (Q9NWZ3 1-460): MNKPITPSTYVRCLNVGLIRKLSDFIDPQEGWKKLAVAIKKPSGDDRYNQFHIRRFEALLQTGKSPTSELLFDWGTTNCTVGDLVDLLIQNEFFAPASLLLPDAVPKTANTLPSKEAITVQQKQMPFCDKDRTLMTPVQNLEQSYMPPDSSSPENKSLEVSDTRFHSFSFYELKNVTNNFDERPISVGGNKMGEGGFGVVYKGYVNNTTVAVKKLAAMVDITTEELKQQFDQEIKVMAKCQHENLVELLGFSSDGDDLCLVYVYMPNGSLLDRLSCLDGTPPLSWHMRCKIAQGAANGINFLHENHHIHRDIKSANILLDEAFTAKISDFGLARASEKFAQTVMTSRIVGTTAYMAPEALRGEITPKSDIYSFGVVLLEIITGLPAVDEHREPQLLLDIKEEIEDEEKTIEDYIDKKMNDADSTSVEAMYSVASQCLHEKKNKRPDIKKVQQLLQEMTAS
Procedure: Degradation of IRAK4 in OCI-LY10 was quantitatively measured using Meso Scale Discovery technology. OCI-LY10 cells were seeded in 96-well plates (Corning 3799) with a density of 300,000 cells per well in 100 μL fresh media. Compounds were then added to the assay plates with a final top concentration of 1 to 10 μM in a 1:3 dilution series with total of 8 doses. The assay plates were then incubated for 4 to 24 hours at 37 under 5% CO2. The assay plates were then centrifuged for 5 minutes and the cell pellets were treated with 100 μL/well RIPA lysis buffer (Boston BioProducts BP-115D) with proteinase inhibitors. To prepare MSD assay plates (Meso Scale Discovery Catalog number L15XA-3), the plates were coated with 2 μg/mL capture antibody (mouse Anti-IRAK4 antibody [2H9], ab119942) in PBS, at 40 μL/well. […] The assay plates were then incubated at room temperature for 1 hour, washed 3 times with 150 μL/well TBST buffer, and 150 μL/well MSD reading buffer (Meso Scale Discovery catalog number R92TC-2) was added. The plates were then analyzed by a MSD reader (Meso Scale Discovery, Model Quick Plex SQ 120). The data was then analyzed by software Prism 7.0 from GraphPad and the dose-depended IRAK4 degradation were fit using a three-parameter logistic equation to calculate DC50. […]

- IC50 (OCI-LY10 cells): 100 to 500 nM
- DC50 (IRAK4): < 10 nM
Compound: [2H]C([2H])([2H])C(O)(c1cc2nc([C@H]3CC[C@H](CN4CC5(CC(CCNc6cccc7c6C(=O)N(C6CCC(=O)NC6=O)C7=O)C5)C4)CC3)sc2cc1NC(=O)c1cccc(C(F)(F)F)n1)C([2H])([2H])[2H] (some centres unmarked) [Compound I-1, N-[2-[4-[[6-[2-[[2-(2,6-dioxo-3-piperidyl)-1,3-dioxo-isoindolin-4-yl]amino]ethyl]-2-azaspiro[3.3]heptan-2-yl]methyl]cyclohexyl]-5-[2,2,2-trideuterio-1-hydroxy-1-(trideuteriomethyl)ethyl]-1,3-benzothiazol-6-yl]-6-(trifluoromethyl)pyridine-2-carboxamide]
